SMILES	solubility (mole fraction) (in 2-butanone, 298 K)	solubility (mole fraction) (in 2-butanone, 303 K)	solubility (mole fraction) (in 2-butanone, 308 K)	solubility (mole fraction) (in 2-butanone, 313 K)	solubility (mole fraction) (in 2-butanone, 318 K)	solubility (mole fraction) (in acetonitrile, 298 K)	solubility (mole fraction) (in acetonitrile, 303 K)	solubility (mole fraction) (in acetonitrile, 308 K)	solubility (mole fraction) (in acetonitrile, 313 K)	solubility (mole fraction) (in acetonitrile, 318 K)	solubility (mole fraction) (in isopropanol, 298 K)	solubility (mole fraction) (in isopropanol, 303 K)	solubility (mole fraction) (in isopropanol, 308 K)	solubility (mole fraction) (in isopropanol, 313 K)	solubility (mole fraction) (in isopropanol, 318 K)
O=C1c2ccccc2C(=O)c2ccccc21	0.00054	0.00062	0.00075	0.00087	0.001	0.00022	0.00026	0.00032	0.00039	0.00048	8e-05	0.0001	0.00012	0.00015	0.00018
c1ccc2cc3ccccc3cc2c1	0.00477	0.00591	0.00712	0.0085	0.0134	0.00066	0.00093	0.00135	0.00196	0.0027	0.00034	0.00044	0.00061	0.00081	0.00111

From BigSolDB 2.1
